The source of these data is PubChem BioAssay AID624130 (National Center for Advancing Translational Sciences (NCATS), 2012).

Values after ≈ are worked out from the molar mass of the structure shown.

The subject of the data set is aqueous kinetic solubility, pH 7.4 phosphate buffer, LC-UV/MS. The experiment in a line: qHTS Assay to Find Inhibitors of T. brucei phosphofructokinase: Aqueous Kinetic Solubility. As to conditions: active compounds read high.

A word on the solubility: it is how much of the substance goes into solution per volume.

On to `O=C(Cc1ccc(Cl)c(Cl)c1)Nc1ccc(S(=O)(=O)Nc2ccon2)cc1`, for which the solubility is 150 µM (≈ 63.9 µg/mL).
